Test results as given in patent US20260176290A1, “INHIBITORS OF KRAS(G12D)” (Ranok Therapeutics (Hangzhou) Co. Ltd., priority 2022, published 2026).

test system: ASPC1 pancreatic adenocarcinoma cells [homozygous G12D]; assay: Cancer cell line proliferation (CellTiter-Glo), ASPC1; format: cell-based; conditions: Homo sapiens, ASPC-1 cells, 72 hr, read-out: CTG(IC50), ABS-72 H(nM) ASPC-1
Protocol: (§1) The following cancer cell lines were employed: AGS gastric carcinoma [heterozygous G12D] (ATCC, CRL-1739); A-427 lung carcinoma [heterozygous G12D] (ATCC, HTB-53); ASPC1 pancreatic adenocarcinoma [homozygous G12D] (ATCC, CRL-1682) and SW1990 pancreatic adenocarcinoma [homozygous G12D] (ATCC CRL-2172). Cell lines were cultured essentially according to ATCC recommendations.
(§2) AGS, A-427, ASPC1, SW1990, and GP2D cells were plated in 96-well tissue culture plates at 4,000 cells/well and incubated at 37° C./5% CO2 for 72 hr in 100 μl of media. 3-fold serial dilutions of each test compound were prepared ranging from 20 μM to 1.02 nM. Each cell line was then treated with test compounds at various concentrations with a final concentration of 0.5% DMSO/well, and then incubated at 37° C./5% CO2 for 72 hr. 100 μl of CellTiter-Glo® Reagent (Promega Corporation, Madison, WI) was added to each well and processed according manufacturer's protocol. Results were analyzed and IC50 5 values were calculated in GraphPad 7 software.

| SMILES | IC50 [nM] |
| --- | --- |
| C#Cc1c(F)ccc2cc(O)cc(-c3ncc4c(N5CC6CCC(C5)N6)nc(OCC5(CN6CCC(C#N)CC6)CC5)nc4c3F)c12 [Example 11] | < 100 |
| C#Cc1c(F)ccc2cc(O)cc(-c3nc(OC)c4c(N5CC6CCC(C5)N6)nc(OCC5(CN6CC7(CC(F)C7)C6)CC5)nc4c3F)c12 [Example 50] | < 100 |
| C#Cc1c(F)ccc2cc(O)cc(-c3ncc4c(N5CC6CCC(C5)N6)nc(OCC5(CN6CCC7(CC6)OCCO7)CC5)nc4c3F)c12 [Example 24] | > 1000 |
| C#Cc1c(F)ccc2cc(O)cc(-c3nc(OC)c4c(N5CC6CCC(C5)N6)nc(OCC5(CN6CC7CC7C6)CC5)nc4c3F)c12 (stereo not drawn) [Example 2] | < 100 |
| C#Cc1c(F)ccc2cc(O)cc(-c3ncc4c(N5CC6CCC(C5)N6)nc(OCC5(CN6CCC[C@H](C#N)C6)CC5)nc4c3F)c12 [Example 10] | < 100 |
| C#Cc1c(F)ccc2cc(O)cc(-c3nc(C)c4c(N5CC6CCC(C5)N6)nc(OCC5(CN6CCC(C(F)(F)F)CC6)CC5)nc4c3F)c12 [Example 39] | < 100 |
| C#Cc1c(F)ccc2cc(O)cc(-c3nc(OC(F)F)c4c(N5CC6CCC(C5)N6)nc(OCC5(CN6CCC(F)CC6)CC5)nc4c3F)c12 [Example 35] | < 100 |
| C#Cc1c(F)ccc2cc(O)cc(-c3ncc4c(N5CC6CCC(C5)N6)nc(OCC56CCCN5C[C@H](F)C6)nc4c3F)c12 (stereo partly drawn) [Ref. 1, reference compound] | 100 to 1000 |
| C#Cc1cccc2cc(O)cc(-c3ncc4c(N5CC6CCC(C5)N6)nc(OCC5(CN6CCC(F)(F)CC6)CC5)nc4c3F)c12 [Example 5] | < 100 |
| C#Cc1c(F)ccc2cc(O)cc(-c3nc(OC(F)(F)F)c4c(N5CC6CCC(C5)N6)nc(OCC5(CN6CCC(F)CC6)CC5)nc4c3F)c12 [Example 47] | < 100 |
| C#Cc1cccc2cc(O)cc(-c3ncc4c(N5CC6CCC(C5)N6)nc(OCC5(CN6CC(F)C6)CC5)nc4c3F)c12 [Example 6] | 100 to 1000 |
| C#Cc1c(F)ccc2cc(O)cc(-c3ncc4c(N5CC6CCC(C5)N6)nc(OCC5(CN6CC[C@H](F)C6)CC5)nc4c3F)c12 [Example 15] | < 100 |

test system: AGS gastric carcinoma cells [heterozygous G12D]; assay: Cancer cell line proliferation (CellTiter-Glo), AGS; format: cell-based; conditions: Homo sapiens, 72 hr, read-out: CTG(IC50), ABS-72 H(nM) AGS
Protocol: as §1, §2

| SMILES | IC50 [nM] |
| --- | --- |
| C#Cc1cccc2cc(O)cc(-c3ncc4c(N5CC6CCC(C5)N6)nc(OCC5(CN6CCC(OC)CC6)CC5)nc4c3F)c12 [Example 17] | < 100 |
| C#Cc1c(F)ccc2cc(O)cc(-c3ncc4c(N5CC6CCC(C5)N6)nc(OCC5(CN6CCC(C#N)CC6)CC5)nc4c3F)c12 [Example 11] | < 100 |
| C#Cc1c(F)ccc2cc(O)cc(-c3nc(OC)c4c(N5CC6CCC(C5)N6)nc(OCC5(CN6CC7(CC(F)C7)C6)CC5)nc4c3F)c12 [Example 50] | < 100 |
| C#Cc1c(F)ccc2cc(O)cc(-c3ncc4c(N5CC6CCC(C5)N6)nc(OCC5(CN6CCC7(CC6)OCCO7)CC5)nc4c3F)c12 [Example 24] | < 100 |
| C#Cc1c(F)ccc2cc(O)cc(-c3nc(OC)c4c(N5CC6CCC(C5)N6)nc(OCC5(CN6CC7CC7C6)CC5)nc4c3F)c12 (stereo not drawn) [Example 2] | < 100 |
| C#Cc1c(F)ccc2cc(O)cc(-c3ncc4c(N5CC6CCC(C5)N6)nc(OCC5(CN6CCC[C@H](C#N)C6)CC5)nc4c3F)c12 [Example 10] | < 100 |
| C#Cc1c(F)ccc2cc(O)cc(-c3nc(C)c4c(N5CC6CCC(C5)N6)nc(OCC5(CN6CCC(C(F)(F)F)CC6)CC5)nc4c3F)c12 [Example 39] | < 100 |
| C#Cc1c(F)ccc2cc(O)cc(-c3ncc4c(N5CC6CCC(C5)N6)nc(OCC5(CN6CCC(C(C)C)CC6)CC5)nc4c3F)c12 [Example 18] | < 100 |
| C#Cc1c(F)ccc2cc(O)cc(-c3nc(OC(F)F)c4c(N5CC6CCC(C5)N6)nc(OCC5(CN6CCC(F)CC6)CC5)nc4c3F)c12 [Example 35] | < 100 |
| C#Cc1c(F)ccc2cc(O)cc(-c3ncc4c(N5CC6CCC(C5)N6)nc(OCC56CCCN5C[C@H](F)C6)nc4c3F)c12 (stereo partly drawn) [Ref. 1, reference compound] | < 100 |
| C#Cc1cccc2cc(O)cc(-c3ncc4c(N5CC6CCC(C5)N6)nc(OCC5(CN6CCC(F)(F)CC6)CC5)nc4c3F)c12 [Example 5] | < 100 |
| C#Cc1c(F)ccc2cc(O)cc(-c3nc(OC(F)(F)F)c4c(N5CC6CCC(C5)N6)nc(OCC5(CN6CCC(F)CC6)CC5)nc4c3F)c12 [Example 47] | < 100 |
| C#Cc1cccc2cc(O)cc(-c3ncc4c(N5CC6CCC(C5)N6)nc(OCC5(CN6CC(F)C6)CC5)nc4c3F)c12 [Example 6] | < 100 |
| C#Cc1c(F)ccc2cc(O)cc(-c3ncc4c(N5CC6CCC(C5)N6)nc(OCC5(CN6CC[C@H](F)C6)CC5)nc4c3F)c12 [Example 15] | < 100 |

test system: SW1990 pancreatic adenocarcinoma cells [homozygous G12D]; assay: Cancer cell line proliferation (CellTiter-Glo), SW1990; format: cell-based; conditions: Homo sapiens, 72 hr, read-out: CTG(IC50), ABS-72 H(nM) SW1990
Protocol: as §1, §2

| SMILES | IC50 [nM] |
| --- | --- |
| C#Cc1c(F)ccc2cc(O)cc(-c3nc(OC)c4c(N5CC6CCC(C5)N6)nc(OCC5(CN6CC7(CC(F)C7)C6)CC5)nc4c3F)c12 [Example 50] | < 100 |
| C#Cc1c(F)ccc2cc(O)cc(-c3ncc4c(N5CC6CCC(C5)N6)nc(OCC5(CN6CCC7(CC6)OCCO7)CC5)nc4c3F)c12 [Example 24] | < 100 |
| C#Cc1c(F)ccc2cc(O)cc(-c3nc(OC)c4c(N5CC6CCC(C5)N6)nc(OCC5(CN6CC7CC7C6)CC5)nc4c3F)c12 (stereo not drawn) [Example 2] | < 100 |
| C#Cc1c(F)ccc2cc(O)cc(-c3nc(C)c4c(N5CC6CCC(C5)N6)nc(OCC5(CN6CCC(C(F)(F)F)CC6)CC5)nc4c3F)c12 [Example 39] | < 100 |
| C#Cc1c(F)ccc2cc(O)cc(-c3nc(OC(F)F)c4c(N5CC6CCC(C5)N6)nc(OCC5(CN6CCC(F)CC6)CC5)nc4c3F)c12 [Example 35] | < 100 |
| C#Cc1c(F)ccc2cc(O)cc(-c3ncc4c(N5CC6CCC(C5)N6)nc(OCC56CCCN5C[C@H](F)C6)nc4c3F)c12 (stereo partly drawn) [Ref. 1, reference compound] | < 100 |
| C#Cc1c(F)ccc2cc(O)cc(-c3nc(OC(F)(F)F)c4c(N5CC6CCC(C5)N6)nc(OCC5(CN6CCC(F)CC6)CC5)nc4c3F)c12 [Example 47] | < 100 |

test system: A-427 lung carcinoma cells [heterozygous G12D]; assay: Cancer cell line proliferation (CellTiter-Glo), A-427; format: cell-based; conditions: Homo sapiens, A427 cells, 72 hr, read-out: CTG(IC50), ABS-72 H(nM) A427
Protocol: as §1, §2

| SMILES | IC50 [nM] |
| --- | --- |
| C#Cc1cccc2cc(O)cc(-c3ncc4c(N5CC6CCC(C5)N6)nc(OCC5(CN6CCC(OC)CC6)CC5)nc4c3F)c12 [Example 17] | 100 to 1000 |
| C#Cc1c(F)ccc2cc(O)cc(-c3ncc4c(N5CC6CCC(C5)N6)nc(OCC5(CN6CCC(C#N)CC6)CC5)nc4c3F)c12 [Example 11] | < 100 |
| C#Cc1c(F)ccc2cc(O)cc(-c3ncc4c(N5CC6CCC(C5)N6)nc(OCC5(CN6CCC7(CC6)OCCO7)CC5)nc4c3F)c12 [Example 24] | 100 to 1000 |
| C#Cc1c(F)ccc2cc(O)cc(-c3nc(OC)c4c(N5CC6CCC(C5)N6)nc(OCC5(CN6CC7CC7C6)CC5)nc4c3F)c12 (stereo not drawn) [Example 2] | < 100 |
| C#Cc1c(F)ccc2cc(O)cc(-c3ncc4c(N5CC6CCC(C5)N6)nc(OCC5(CN6CCC[C@H](C#N)C6)CC5)nc4c3F)c12 [Example 10] | < 100 |
| C#Cc1c(F)ccc2cc(O)cc(-c3nc(C)c4c(N5CC6CCC(C5)N6)nc(OCC5(CN6CCC(C(F)(F)F)CC6)CC5)nc4c3F)c12 [Example 39] | 100 to 1000 |
| C#Cc1c(F)ccc2cc(O)cc(-c3ncc4c(N5CC6CCC(C5)N6)nc(OCC5(CN6CCC(C(C)C)CC6)CC5)nc4c3F)c12 [Example 18] | 100 to 1000 |
| C#Cc1c(F)ccc2cc(O)cc(-c3ncc4c(N5CC6CCC(C5)N6)nc(OCC56CCCN5C[C@H](F)C6)nc4c3F)c12 (stereo partly drawn) [Ref. 1, reference compound] | < 100 |
| C#Cc1cccc2cc(O)cc(-c3ncc4c(N5CC6CCC(C5)N6)nc(OCC5(CN6CCC(F)(F)CC6)CC5)nc4c3F)c12 [Example 5] | < 100 |
| C#Cc1cccc2cc(O)cc(-c3ncc4c(N5CC6CCC(C5)N6)nc(OCC5(CN6CC(F)C6)CC5)nc4c3F)c12 [Example 6] | < 100 |
| C#Cc1c(F)ccc2cc(O)cc(-c3ncc4c(N5CC6CCC(C5)N6)nc(OCC5(CN6CC[C@H](F)C6)CC5)nc4c3F)c12 [Example 15] | < 100 |

target: T1, KRAS (G12D)/SOS1 (Homo sapiens, UniProt P01116, G12D); assay: KRAS (G12D)/SOS1 homogeneous time-resolved fluorescence (HTRF) assay; format: binding; conditions: absence of GTP, 4° C. for 3 hr
T1 construct: purchased Cisbio 63ADK000CB17PEH
Protocol: 3-fold serial dilutions of each test compound were prepared ranging from 20 μM to 1.02 nM. The test compound was mixed and incubated with reaction components, incubated in a sealed plate at 4° C. for 3 hr and fluorescence was measured using a PerkinElmer Envision plate reader. […]

T1 sequence (P01116 1-188 isoform P01116-2 G12D): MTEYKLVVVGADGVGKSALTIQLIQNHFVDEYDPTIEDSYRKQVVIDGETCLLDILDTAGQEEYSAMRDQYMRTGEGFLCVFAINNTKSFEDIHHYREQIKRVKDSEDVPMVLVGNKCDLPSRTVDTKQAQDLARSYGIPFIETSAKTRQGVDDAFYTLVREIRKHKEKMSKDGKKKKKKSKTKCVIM

| SMILES | IC50 [nM] |
| --- | --- |
| C#Cc1cccc2cc(O)cc(-c3ncc4c(N5CC6CCC(C5)N6)nc(OCC5(CN6CCC(OC)CC6)CC5)nc4c3F)c12 [Example 17] | < 100 |
| C#Cc1c(F)ccc2cc(O)cc(-c3ncc4c(N5CC6CCC(C5)N6)nc(OCC5(CN6CCC(C#N)CC6)CC5)nc4c3F)c12 [Example 11] | < 100 |
| C#Cc1c(F)ccc2cc(O)cc(-c3nc(OC)c4c(N5CC6CCC(C5)N6)nc(OCC5(CN6CC7(CC(F)C7)C6)CC5)nc4c3F)c12 [Example 50] | < 100 |
| C#Cc1c(F)ccc2cc(O)cc(-c3ncc4c(N5CC6CCC(C5)N6)nc(OCC5(CN6CCC7(CC6)OCCO7)CC5)nc4c3F)c12 [Example 24] | < 100 |
| C#Cc1c(F)ccc2cc(O)cc(-c3nc(OC)c4c(N5CC6CCC(C5)N6)nc(OCC5(CN6CC7CC7C6)CC5)nc4c3F)c12 (stereo not drawn) [Example 2] | < 100 |
| C#Cc1c(F)ccc2cc(O)cc(-c3ncc4c(N5CC6CCC(C5)N6)nc(OCC5(CN6CCC[C@H](C#N)C6)CC5)nc4c3F)c12 [Example 10] | < 100 |
| C#Cc1c(F)ccc2cc(O)cc(-c3nc(C)c4c(N5CC6CCC(C5)N6)nc(OCC5(CN6CCC(C(F)(F)F)CC6)CC5)nc4c3F)c12 [Example 39] | < 100 |
| C#Cc1c(F)ccc2cc(O)cc(-c3ncc4c(N5CC6CCC(C5)N6)nc(OCC5(CN6CCC(C(C)C)CC6)CC5)nc4c3F)c12 [Example 18] | < 100 |
| C#Cc1c(F)ccc2cc(O)cc(-c3nc(OC(F)F)c4c(N5CC6CCC(C5)N6)nc(OCC5(CN6CCC(F)CC6)CC5)nc4c3F)c12 [Example 35] | < 100 |
| C#Cc1cccc2cc(O)cc(-c3ncc4c(N5CC6CCC(C5)N6)nc(OCC5(CN6CCC(F)(F)CC6)CC5)nc4c3F)c12 [Example 5] | < 100 |
| C#Cc1c(F)ccc2cc(O)cc(-c3nc(OC(F)(F)F)c4c(N5CC6CCC(C5)N6)nc(OCC5(CN6CCC(F)CC6)CC5)nc4c3F)c12 [Example 47] | < 100 |
| C#Cc1cccc2cc(O)cc(-c3ncc4c(N5CC6CCC(C5)N6)nc(OCC5(CN6CC(F)C6)CC5)nc4c3F)c12 [Example 6] | < 100 |
| C#Cc1c(F)ccc2cc(O)cc(-c3ncc4c(N5CC6CCC(C5)N6)nc(OCC5(CN6CC[C@H](F)C6)CC5)nc4c3F)c12 [Example 15] | < 100 |
